{"source": "PubChem BioAssay AID1259407", "about": "(Chemical Carcinogenesis Research Information System (CCRIS), 2018)", "test_system": "CCRIS mutagenicity, Ames/micronucleus/aberration tests", "assay": "CCRIS mutagenicity studies", "note": "Activity calls are given as the source filed them. How the calls were made is not given here.", "data": [{"smiles": "c1ccc(NNc2ccccc2)cc1", "values": [{"measurement": "mutagenic call", "setting": "End Point: IN VITRO CHROMOSOMAL ABERRATIONS, Test System: CHINESE HAMSTER OVARY CELLS, Metabolic Activation: NONE", "value": "active; positive; statistically significant increase, but not dose-related"}, {"measurement": "mutagenic call", "setting": "End Point: IN VITRO CHROMOSOMAL ABERRATIONS, Test System: CHINESE HAMSTER OVARY CELLS, Metabolic Activation: RAT, LIVER, S-9, AROCLOR 1254", "value": "active; positive"}, {"measurement": "mutagenic call", "setting": "Test System: AMES SALMONELLA TYPHIMURIUM, Strain/Indicator: TA98, Metabolic Activation: HAMSTER, LIVER, S-9, AROCLOR 1254, Method: STANDARD PLATE", "value": "inactive; negative"}, {"measurement": "mutagenic call", "setting": "Test System: AMES SALMONELLA TYPHIMURIUM, Strain/Indicator: TA98, Metabolic Activation: HAMSTER, LIVER, S-9, Method: STANDARD PLATE", "value": "inactive; negative"}, {"measurement": "mutagenic call", "setting": "Test System: AMES SALMONELLA TYPHIMURIUM, Strain/Indicator: TA98, Metabolic Activation: MOUSE, LIVER, S-9, AROCLOR 1254, Method: STANDARD PLATE", "value": "inactive; negative"}, {"measurement": "mutagenic call", "setting": "Test System: AMES SALMONELLA TYPHIMURIUM, Strain/Indicator: TA98, Metabolic Activation: MOUSE, LIVER, S-9, Method: STANDARD PLATE", "value": "inactive; negative"}, {"measurement": "mutagenic call", "setting": "Test System: AMES SALMONELLA TYPHIMURIUM, Strain/Indicator: TA98, Metabolic Activation: NONE, Method: STANDARD PLATE", "value": "inactive; negative"}, {"measurement": "mutagenic call", "setting": "Test System: AMES SALMONELLA TYPHIMURIUM, Strain/Indicator: TA98, Metabolic Activation: RAT, LIVER, S-9, Method: STANDARD PLATE", "value": "inactive; negative"}, {"measurement": "mutagenic call", "setting": "Test System: AMES SALMONELLA TYPHIMURIUM, Strain/Indicator: TA100, Metabolic Activation: HAMSTER, LIVER, S-9, AROCLOR 1254, Method: STANDARD PLATE", "value": "inactive; negative"}, {"measurement": "mutagenic call", "setting": "Test System: AMES SALMONELLA TYPHIMURIUM, Strain/Indicator: TA100, Metabolic Activation: HAMSTER, LIVER, S-9, Method: STANDARD PLATE", "value": "inactive; negative"}, {"measurement": "mutagenic call", "setting": "Test System: AMES SALMONELLA TYPHIMURIUM, Strain/Indicator: TA100, Metabolic Activation: MOUSE, LIVER, S-9, AROCLOR 1254, Method: STANDARD PLATE", "value": "active; positive"}, {"measurement": "mutagenic call", "setting": "Test System: AMES SALMONELLA TYPHIMURIUM, Strain/Indicator: TA100, Metabolic Activation: MOUSE, LIVER, S-9, Method: STANDARD PLATE", "value": "inactive; negative"}, {"measurement": "mutagenic call", "setting": "Test System: AMES SALMONELLA TYPHIMURIUM, Strain/Indicator: TA100, Metabolic Activation: NONE, Method: STANDARD PLATE", "value": "inactive; negative"}, {"measurement": "mutagenic call", "setting": "Test System: AMES SALMONELLA TYPHIMURIUM, Strain/Indicator: TA100, Metabolic Activation: RAT, LIVER, S-9, AROCLOR 1254, Method: STANDARD PLATE", "value": "active; positive"}, {"measurement": "mutagenic call", "setting": "Test System: AMES SALMONELLA TYPHIMURIUM, Strain/Indicator: TA100, Metabolic Activation: RAT, LIVER, S-9, Method: STANDARD PLATE", "value": "inactive; negative"}, {"measurement": "mutagenic call", "setting": "Test System: AMES SALMONELLA TYPHIMURIUM, Strain/Indicator: TA1535, Metabolic Activation: HAMSTER, LIVER, S-9, AROCLOR 1254, Method: STANDARD PLATE", "value": "inactive; negative"}, {"measurement": "mutagenic call", "setting": "Test System: AMES SALMONELLA TYPHIMURIUM, Strain/Indicator: TA1535, Metabolic Activation: HAMSTER, LIVER, S-9, Method: STANDARD PLATE", "value": "inactive; negative"}, {"measurement": "mutagenic call", "setting": "Test System: AMES SALMONELLA TYPHIMURIUM, Strain/Indicator: TA1535, Metabolic Activation: MOUSE, LIVER, S-9, Method: STANDARD PLATE", "value": "inactive; negative"}, {"measurement": "mutagenic call", "setting": "Test System: AMES SALMONELLA TYPHIMURIUM, Strain/Indicator: TA1535, Metabolic Activation: NONE, Method: STANDARD PLATE", "value": "inactive; negative"}, {"measurement": "mutagenic call", "setting": "Test System: AMES SALMONELLA TYPHIMURIUM, Strain/Indicator: TA1535, Metabolic Activation: RAT, LIVER, S-9, AROCLOR 1254, Method: STANDARD PLATE", "value": "inactive; negative"}, {"measurement": "mutagenic call", "setting": "Test System: AMES SALMONELLA TYPHIMURIUM, Strain/Indicator: TA1535, Metabolic Activation: RAT, LIVER, S-9, Method: STANDARD PLATE", "value": "inactive; negative"}, {"measurement": "mutagenic call", "setting": "Test System: AMES SALMONELLA TYPHIMURIUM, Strain/Indicator: TA1537, Metabolic Activation: HAMSTER, LIVER, S-9, AROCLOR 1254, Method: STANDARD PLATE", "value": "inactive; negative"}, {"measurement": "mutagenic call", "setting": "Test System: AMES SALMONELLA TYPHIMURIUM, Strain/Indicator: TA1537, Metabolic Activation: HAMSTER, LIVER, S-9, Method: STANDARD PLATE", "value": "inactive; negative"}, {"measurement": "mutagenic call", "setting": "Test System: AMES SALMONELLA TYPHIMURIUM, Strain/Indicator: TA1537, Metabolic Activation: MOUSE, LIVER, S-9, AROCLOR 1254, Method: STANDARD PLATE", "value": "inactive; negative"}, {"measurement": "mutagenic call", "setting": "Test System: AMES SALMONELLA TYPHIMURIUM, Strain/Indicator: TA1537, Metabolic Activation: MOUSE, LIVER, S-9, Method: STANDARD PLATE", "value": "inactive; negative"}, {"measurement": "mutagenic call", "setting": "Test System: AMES SALMONELLA TYPHIMURIUM, Strain/Indicator: TA1537, Metabolic Activation: NONE, Method: STANDARD PLATE", "value": "inactive; negative"}, {"measurement": "mutagenic call", "setting": "Test System: AMES SALMONELLA TYPHIMURIUM, Strain/Indicator: TA1537, Metabolic Activation: RAT, LIVER, S-9, AROCLOR 1254, Method: STANDARD PLATE", "value": "inactive; negative"}, {"measurement": "mutagenic call", "setting": "Test System: AMES SALMONELLA TYPHIMURIUM, Strain/Indicator: TA1537, Metabolic Activation: RAT, LIVER, S-9, Method: STANDARD PLATE", "value": "inactive; negative"}, {"measurement": "mutagenic call", "setting": "Test System: AMES SALMONELLA TYPHIMURIUM, Strain/Indicator: TA1538, Metabolic Activation: HAMSTER, LIVER, S-9, AROCLOR 1254, Method: STANDARD PLATE", "value": "inactive; negative"}, {"measurement": "mutagenic call", "setting": "Test System: AMES SALMONELLA TYPHIMURIUM, Strain/Indicator: TA1538, Metabolic Activation: HAMSTER, LIVER, S-9, Method: STANDARD PLATE", "value": "inactive; negative"}, {"measurement": "mutagenic call", "setting": "Test System: AMES SALMONELLA TYPHIMURIUM, Strain/Indicator: TA1538, Metabolic Activation: MOUSE, LIVER, S-9, AROCLOR 1254, Method: STANDARD PLATE", "value": "inactive; negative"}, {"measurement": "mutagenic call", "setting": "Test System: AMES SALMONELLA TYPHIMURIUM, Strain/Indicator: TA1538, Metabolic Activation: MOUSE, LIVER, S-9, Method: STANDARD PLATE", "value": "inactive; negative"}, {"measurement": "mutagenic call", "setting": "Test System: AMES SALMONELLA TYPHIMURIUM, Strain/Indicator: TA1538, Metabolic Activation: NONE, Method: STANDARD PLATE", "value": "inactive; negative"}, {"measurement": "mutagenic call", "setting": "Test System: AMES SALMONELLA TYPHIMURIUM, Strain/Indicator: TA1538, Metabolic Activation: RAT, LIVER, S-9, AROCLOR 1254, Method: STANDARD PLATE", "value": "inactive; negative"}, {"measurement": "mutagenic call", "setting": "Test System: AMES SALMONELLA TYPHIMURIUM, Strain/Indicator: TA1538, Metabolic Activation: RAT, LIVER, S-9, Method: STANDARD PLATE", "value": "inactive; negative"}, {"measurement": "mutagenic call", "setting": "Test System: E. COLI, Strain/Indicator: WP2 UVRA, Metabolic Activation: HAMSTER, LIVER, S-9, AROCLOR 1254, Method: STANDARD PLATE", "value": "inactive; negative"}, {"measurement": "mutagenic call", "setting": "Test System: E. COLI, Strain/Indicator: WP2 UVRA, Metabolic Activation: HAMSTER, LIVER, S-9, Method: STANDARD PLATE", "value": "inactive; negative"}, {"measurement": "mutagenic call", "setting": "Test System: E. COLI, Strain/Indicator: WP2 UVRA, Metabolic Activation: MOUSE, LIVER, S-9, AROCLOR 1254, Method: STANDARD PLATE", "value": "inactive; negative"}, {"measurement": "mutagenic call", "setting": "Test System: E. COLI, Strain/Indicator: WP2 UVRA, Metabolic Activation: MOUSE, LIVER, S-9, Method: STANDARD PLATE", "value": "inactive; negative"}, {"measurement": "mutagenic call", "setting": "Test System: E. COLI, Strain/Indicator: WP2 UVRA, Metabolic Activation: NONE, Method: STANDARD PLATE", "value": "inactive; negative"}, {"measurement": "mutagenic call", "setting": "Test System: E. COLI, Strain/Indicator: WP2 UVRA, Metabolic Activation: RAT, LIVER, S-9, AROCLOR 1254, Method: STANDARD PLATE", "value": "inactive; negative"}, {"measurement": "mutagenic call", "setting": "Test System: E. COLI, Strain/Indicator: WP2 UVRA, Metabolic Activation: RAT, LIVER, S-9, Method: STANDARD PLATE", "value": "inactive; negative"}]}]}
